Laboratory results from ChEMBL document CHEMBL2440076, “New triarylpyrazoles as broad-spectrum anticancer agents: design, synthesis, and biological evaluation” (Eur J Med Chem, 2013).

Legend:
Type in all cases: functional
MDA-MB-435 [1] = assay: Growth inhibition of human MDA-MB-435 cells assessed as cell growth at 5X10'-5 M after 48 hrs by sulforhodamine B assay; conditions: MDA-MB-435, 48 h, read-out: Activity
RXF 393 [2] = assay: Growth inhibition of human RXF393 cells assessed as cell growth at 5X10'-9 M after 48 hrs by sulforhodamine B assay; conditions: RXF 393, 48 h, read-out: Activity
T47D = assay: Growth inhibition of human T47D cells assessed as cell growth at 5X10'-9 M after 48 hrs by sulforhodamine B assay; conditions: read-out: Activity
CAKI-1 = assay: Growth inhibition of human CAKI-1 cells assessed as cell growth at 5X10'-9 M after 48 hrs by sulforhodamine B assay; conditions: CAKI-1, 48 h, read-out: Activity
SNB-75 = assay: Growth inhibition of human SNB75 cells assessed as cell growth at 5X10'-6 M after 48 hrs by sulforhodamine B assay; conditions: SNB-75, 48 h, read-out: Activity
DU-145 = assay: Growth inhibition of human DU145 cells assessed as cell growth at 3X10'-8 M after 48 hrs by sulforhodamine B assay; conditions: DU-145, 48 h, read-out: Activity
MCF7 [3] = assay: Growth inhibition of human MCF7 cells assessed as cell growth at 3X10'-9 M after 48 hrs by sulforhodamine B assay; conditions: MCF7, 48 h, read-out: Activity
MDA-MB-435 [4] = assay: Growth inhibition of human MDA-MB-435 cells assessed as cell growth at 3X10'-7 M after 48 hrs by sulforhodamine B assay; conditions: MDA-MB-435, 48 h, read-out: Activity
SF-295 [5] = assay: Growth inhibition of human SF295 cells assessed as cell growth at 3X10'-9 M after 48 hrs by sulforhodamine B assay; conditions: SF-295, 48 h, read-out: Activity
SW-620 [6] = assay: Growth inhibition of human SW620 cells assessed as cell growth at 3X10'-8 M after 48 hrs by sulforhodamine B assay; conditions: SW-620, 48 h, read-out: Activity
SW-620 [7] = assay: Growth inhibition of human SW620 cells assessed as cell growth at 3X10'-9 M after 48 hrs by sulforhodamine B assay; conditions: SW-620, 48 h, read-out: Activity
MDA-MB-231 [8] = assay: Growth inhibition of human MDA-MB-231 cells assessed as cell growth at 3X10'-9 M after 48 hrs by sulforhodamine B assay; conditions: MDA-MB-231, 48 h, read-out: Activity
HOP-62 = assay: Growth inhibition of human HOP62 cells assessed as cell growth at 3X10'-9 M after 48 hrs by sulforhodamine B assay; conditions: HOP-62, 48 h, read-out: Activity
RXF 393 [9] = assay: Growth inhibition of human RXF393 cells assessed as cell growth at 3X10'-9 M after 48 hrs by sulforhodamine B assay; conditions: RXF 393, 48 h, read-out: Activity
SK-MEL-2 [10] = assay: Growth inhibition of human SK-MEL-2 cells assessed as cell growth at 3X10'-9 M after 48 hrs by sulforhodamine B assay; conditions: SK-MEL-2, 48 h, read-out: Activity
[11] = Growth inhibition of human NCI-ADR-RES cells assessed as cell growth at 3X10'-7 M after 48 hrs by sulforhodamine B assay; conditions: read-out: Activity
U-251 = assay: Growth inhibition of human U251 cells assessed as cell growth at 3X10'-5 M after 48 hrs by sulforhodamine B assay; conditions: U-251, 48 h, read-out: Activity
SK-MEL-2 [12] = assay: Growth inhibition of human SK-MEL-2 cells assessed as cell growth at 3X10'-8 M after 48 hrs by sulforhodamine B assay; conditions: SK-MEL-2, 48 h, read-out: Activity
OVCAR-8 = assay: Growth inhibition of human OVCAR8 cells assessed as cell growth at 3X10'-8 M after 48 hrs by sulforhodamine B assay; conditions: OVCAR-8, 48 h, read-out: Activity
786-0 = assay: Growth inhibition of human 786-0 cells assessed as cell growth at 3X10'-5 M after 48 hrs by sulforhodamine B assay; conditions: 786-0, 48 h, read-out: Activity
UACC-257 = assay: Growth inhibition of human UACC257 cells assessed as cell growth at 3X10'-5 M after 48 hrs by sulforhodamine B assay; conditions: UACC-257, 48 h, read-out: Activity
ACHN = assay: Growth inhibition of human ACHN cells assessed as cell growth at 3X10'-7 M after 48 hrs by sulforhodamine B assay; conditions: read-out: Activity
SN12C = assay: Growth inhibition of human SN12C cells assessed as cell growth at 3X10'-8 M after 48 hrs by sulforhodamine B assay; conditions: read-out: Activity
SF-539 [13] = assay: Growth inhibition of human SF539 cells assessed as cell growth at 3X10'-7 M after 48 hrs by sulforhodamine B assay; conditions: SF-539, 48 h, read-out: Activity
RPMI-8226 = assay: Growth inhibition of human RPMI8226 cells assessed as cell growth at 3X10'-9 M after 48 hrs by sulforhodamine B assay; conditions: RPMI-8226, 48 h, read-out: Activity
MCF7 [14] = assay: Growth inhibition of human MCF7 cells assessed as cell growth at 3X10'-7 M after 48 hrs by sulforhodamine B assay; conditions: MCF7, 48 h, read-out: Activity
CCRF-CEM = assay: Growth inhibition of human CCRF-CEM cells assessed as cell growth at 3X10'-9 M after 48 hrs by sulforhodamine B assay; conditions: read-out: Activity
HL-60(TB) = assay: Growth inhibition of human HL-60(TB) cells assessed as cell growth at 3X10'-8 M after 48 hrs by sulforhodamine B assay; conditions: HL-60, 48 h, read-out: Activity
SF-539 [15] = assay: Growth inhibition of human SF539 cells assessed as cell growth at 3X10'-8 M after 48 hrs by sulforhodamine B assay; conditions: SF-539, 48 h, read-out: Activity
BT-549 = assay: Growth inhibition of human BT549 cells assessed as cell growth at 3X10'-7 M after 48 hrs by sulforhodamine B assay; conditions: BT-549, 48 h, read-out: Activity
NCI-H460 = assay: Growth inhibition of human NCI-H460 cells assessed as cell growth at 3X10'-9 M after 48 hrs by sulforhodamine B assay; conditions: NCI-H460, 48 h, read-out: Activity
SF-295 [16] = assay: Growth inhibition of human SF295 cells assessed as cell growth at 3X10'-7 M after 48 hrs by sulforhodamine B assay; conditions: SF-295, 48 h, read-out: Activity
SF-295 [17] = assay: Growth inhibition of human SF295 cells assessed as cell growth at 3X10'-5 M after 48 hrs by sulforhodamine B assay; conditions: SF-295, 48 h, read-out: Activity
PC-3 = assay: Growth inhibition of human PC3 cells assessed as cell growth at 3X10'-9 M after 48 hrs by sulforhodamine B assay; conditions: PC-3, 48 h, read-out: Activity
SK-MEL-2 [18] = assay: Growth inhibition of human SK-MEL-2 cells assessed as cell growth at 3X10'-6 M after 48 hrs by sulforhodamine B assay; conditions: SK-MEL-2, 48 h, read-out: Activity
SNB-19 = assay: Growth inhibition of human SNB19 cells assessed as cell growth at 3X10'-9 M after 48 hrs by sulforhodamine B assay; conditions: SNB-19, 48 h, read-out: Activity
MDA-MB-231 [19] = assay: Growth inhibition of human MDA-MB-231 cells assessed as cell growth at 3X10'-6 M after 48 hrs by sulforhodamine B assay; conditions: MDA-MB-231, 48 h, read-out: Activity

SMILES	growth at 0.03 µM (DU-145) [%]	growth at 0.003 µM (MCF7 [3]) [%]	growth at 0.3 µM (MDA-MB-435 [4]) [%]	growth at 0.03 µM (SW-620 [6]) [%]	growth at 0.003 µM (SW-620 [7]) [%]	growth at 0.003 µM (MDA-MB-231 [8]) [%]	growth at 0.003 µM (HOP-62) [%]	growth at 0.003 µM (RXF 393 [9]) [%]	growth at 0.003 µM (SK-MEL-2 [10]) [%]	growth at 0.3 µM [11] [%]	growth at 30 µM (U-251) [%]	growth at 0.03 µM (SK-MEL-2 [12]) [%]	growth at 0.03 µM (OVCAR-8) [%]	growth at 30 µM (786-0) [%]	growth at 30 µM (UACC-257) [%]	growth at 0.3 µM (ACHN) [%]	growth at 0.03 µM (SN12C) [%]	growth at 0.3 µM (SF-539 [13]) [%]	growth at 0.003 µM (RPMI-8226) [%]	growth at 0.3 µM (MCF7 [14]) [%]	also measured
O=C(Nc1cccc(-n2cc(-c3ccncc3)c(-c3ccc(Cl)c(O)c3)n2)c1)Nc1cc(C(F)(F)F)cc(C(F)(F)F)c1																					growth at 50 µM (MDA-MB-435 [1]): -69%; growth at 0.005 µM (RXF 393 [2]): 95%; growth at 0.005 µM (T47D): 97%; growth at 0.005 µM (CAKI-1): 97%; growth at 5 µM (SNB-75): -46%
COc1cc(-c2nn(-c3cccc(NC(=O)Nc4ccc(Cl)c(C(F)(F)F)c4)c3)cc2-c2ccncc2)ccc1Cl	105	94	91	100	101	89	95	98	111	98	-58	115	101	-43	-53	97	94	91	102	87	growth at 0.003 µM (SF-295 [5]): 92%; growth at 0.003 µM (CCRF-CEM): 98%; growth at 0.03 µM (HL-60(TB)): 103%; growth at 0.03 µM (SF-539 [15]): 93%; growth at 0.3 µM (BT-549): 109%; growth at 0.003 µM (NCI-H460): 103%; growth at 0.3 µM (SF-295 [16]): 93%; growth at 30 µM (SF-295 [17]): -70%; growth at 0.003 µM (PC-3): 95%; growth at 3 µM (SK-MEL-2 [18]): -12%; growth at 0.003 µM (SNB-19): 95%; growth at 3 µM (MDA-MB-231 [19]): -9%
O=C(Nc1cccc(-n2cc(-c3ccncc3)c(-c3ccc(Cl)c(O)c3)n2)c1)Nc1cccc(C(F)(F)F)c1	99	91	96	95	98	103	97	96	93	98	-48	98	106	7	-18	94	98	92	99	89	growth at 0.003 µM (SF-295 [5]): 94%; growth at 0.003 µM (CCRF-CEM): 97%; growth at 0.03 µM (HL-60(TB)): 94%; growth at 0.03 µM (SF-539 [15]): 100%; growth at 0.3 µM (BT-549): 102%; growth at 0.003 µM (NCI-H460): 99%; growth at 0.3 µM (SF-295 [16]): 88%; growth at 30 µM (SF-295 [17]): -53%; growth at 0.003 µM (PC-3): 95%; growth at 3 µM (SK-MEL-2 [18]): 35%; growth at 0.003 µM (SNB-19): 94%; growth at 3 µM (MDA-MB-231 [19]): 52%
COc1cc(-c2nn(-c3cccc(NC(=O)Nc4cccc(C(F)(F)F)c4)c3)cc2-c2ccncc2)ccc1Cl																					growth at 50 µM (MDA-MB-435 [1]): -63%; growth at 0.005 µM (RXF 393 [2]): 100%; growth at 0.005 µM (T47D): 95%; growth at 0.005 µM (CAKI-1): 94%; growth at 5 µM (SNB-75): -4%
O=C(Nc1cccc(-n2cc(-c3ccncc3)c(-c3ccc(Cl)c(O)c3)n2)c1)Nc1ccc(Cl)c(Cl)c1	100	97	91	98	100	102	96	96	98	102	-28	106	98	5	-24	96	96	87	103	94	growth at 0.003 µM (CCRF-CEM): 91%; growth at 0.03 µM (HL-60(TB)): 101%; growth at 0.03 µM (SF-539 [15]): 95%; growth at 0.3 µM (BT-549): 106%; growth at 0.003 µM (NCI-H460): 108%; growth at 0.003 µM (PC-3): 103%; growth at 3 µM (SK-MEL-2 [18]): -11%; growth at 0.003 µM (SNB-19): 98%; growth at 3 µM (MDA-MB-231 [19]): 15%
